Source: patent US9416139B2, “Spiro ring compound as hepatitis C virus (HCV) inhibitor and uses thereof” (SUNSHINE LAKE PHARMA CO., LTD., priority 2012, dated 2016)
Where two headings read alike, the source gives them in different places.

Key:
HCV 1a replicon = assay: HCV GT1a replicon assay in Huh-7 cells; format: cell-based, Hepatitis C virus; conditions: Huh-7 cells transfected with HCV replicon, 72 hours incubation, read-out: EC50 against HCV 1a genotype
Protocol: (§1) HCV Replicon System was utilized as an evaluation model in the present disclosure for verifying the effects of the compounds disclosed herein on HCV. An HCV Replicon assay was first described in Science, 1999, 285 (5424), 110-3. […] To determine the potential anti-HCV effects of the test compounds, luciferase assay and antibiotic Neomycin resistance gene were tested according to the method described in Science. 1999 Jul. 2; 285 (5424), 110-3 and J. Virol. 2003 March; 77 (5), 3007-19.
(§2) In a word, the compounds disclosed herein were tested by using human hepatic carcinoma cell line which is transfected stably HCV GT1a, GT1b or GT2a replicon respectively, and resistant cells Y93H, L31F, P32L or I302V and wild-type cells HCV 1b. HCV Replicon System disclosed herein containing Neomycin resistance gene and Luciferase Reporter Gene, the level of HCV replication in host cells is characterized by the expression level of the NEO gene expression level or Luciferase Reporter Gene, and the effects of the compounds herein inhibit HCV replication can be evaluated. In this article, a real-time quantitative polymerase chain reaction (qPCR) method was used to detect NEO gene expression level, and chemiluminescence method was used to test Luciferase Reporter Gene expression level.
(§3) 1. Test Method for Measuring EC50 of the Compounds Base on Luciferase Assay.
(§4) The Huh-7 cells transfected with HCV replicons system were seeded into 96-well plates (8,000 cells in 125 μL/well) respectively; each test compound was diluted to desired concentration using 5-fold serial dilutions protocol, 10 doses in duplicate, and added to wells with POD™ 810 Plate Assembler. […] In this paper, experiments were repeated twice and set the holes without compounds as negative control.
(§5) 2. Test Method for Measuring EC50 of the Compounds by Detecting Antibiotic G418 Resistance Gene NEO Gene.
(§6) In this paper, experiments were repeated twice and set the holes without compounds as negative control.

HCV 1b replicon = assay: HCV GT1b replicon assay in Huh-7 cells; format: cell-based, Hepatitis C virus; conditions: Huh-7 cells transfected with HCV replicon, 72 hours incubation, read-out: EC50 against HCV 1b genotype
Protocol: as §1, §2, §3, §4, §5, §6

Structure (SMILES) | EC50 (HCV 1a replicon; Hepatitis C virus) [nM] | EC50 (HCV 1b replicon; Hepatitis C virus) [nM] | EC50 (HCV 1a replicon) [nM] | EC50 (HCV 1b replicon) [nM]
COC(=O)N[C@H](C(=O)N1CCC[C@H]1c1ncc(-c2ccc(-c3ccc(-c4ccc5nc([C@@H]6CCCN6C(=O)[C@@H](NC(=O)OC)C(C)C)[nH]c(=O)c5c4)c4c3CC3(CCCC3)C4)cc2)[nH]1)C(C)C [Example 1] | 0.76 | 0.042 |  | 
COC(=O)N[C@H](C(=O)N1CCC[C@H]1c1cc(=O)c2cc(-c3ccc(-c4ccc(-c5cnc([C@@H]6CCCN6C(=O)[C@@H](NC(=O)OC)C(C)C)[nH]5)cc4)c4c3CC3(CCCC3)C4)ccc2[nH]1)C(C)C [Example 2] | 1.28 | 0.087 |  | 
COC(=O)N[C@H](C(=O)N1CCC[C@H]1C1=Nc2cc(-c3ccc(-c4ccc(-c5cnc([C@@H]6CCCN6C(=O)[C@@H](NC(=O)OC)C(C)C)[nH]5)cc4)c4c3CC3(CCCC3)C4)ccc2C(C)(C)N1)C(C)C [Example 3] | 0.537 | 0.04 |  | 
COC(=O)N[C@H](C(=O)N1CCC[C@H]1C1=Nc2cc(-c3ccc(-c4ccc(-c5cnc([C@@H]6CCCN6C(=O)[C@@H](NC(=O)OC)C(C)C)[nH]5)cc4)c4c3CC3(CCCC3)C4)ccc2C2(COC2)N1)C(C)C [Example 4] | 0.089 | 0.016 |  | 
COC(=O)N[C@H](C(=O)N1CCC[C@H]1C1=Nc2cc(-c3ccc(-c4ccc(-c5cnc([C@@H]6CCCN6C(=O)[C@@H](NC(=O)OC)C(C)C)[nH]5)cc4)c4c3CC3(CCCC3)C4)ccc2S(=O)(=O)N1)C(C)C [Example 5] | 0.078 | 0.023 |  | 
COC(=O)N[C@H](C(=O)N1CCC[C@H]1c1nc2ccc(-c3ccc(-c4ccc5nc([C@@H]6CCCN6C(=O)[C@@H](NC(=O)OC)C(C)C)[nH]c(=O)c5c4)c4c3CC3(CCCC3)C4)cc2c(=O)[nH]1)C(C)C [Example 6] | 0.109 | 0.077 |  | 
COC(=O)N[C@H](C(=O)N1CCC[C@H]1c1ncc(C#Cc2ccc(-c3ccc4nc([C@@H]5CCCN5C(=O)[C@@H](NC(=O)OC)C(C)C)[nH]c(=O)c4c3)c3c2CC2(CCCC2)C3)[nH]1)C(C)C [Example 7] | 0.21 | 0.103 |  | 
CCC(C)[C@H](NC(=O)OC)C(=O)N1CCC[C@H]1c1nc(=O)c2cc(-c3ccc(-c4ccc(-c5cnc([C@@H]6CCCN6C(=O)[C@@H](NC(=O)OC)C(C)C)[nH]5)cc4)c4c3CC3(CCCCC3)C4)ccc2[nH]1 (stereo partly shown) [Example 8] | 0.982 | 0.065 |  | 
COC(=O)N[C@H](C(=O)N1C[C@@H](F)C[C@H]1c1nc(-c2ccc(-c3ccc(-c4ccc5nc([C@@H]6C[C@H](F)CN6C(=O)[C@@H](NC(=O)OC)C(C)C)[nH]c(=O)c5c4)c4c3CC3(CCCCC3)C4)cc2)c[nH]1)C(C)C [Example 9] | 0.439 | 0.072 |  | 
COC(=O)N[C@H](C(=O)N1CCC[C@H]1c1ncc(-c2ccc(-c3ccc(-c4ccc5nc([C@@H]6CC7CC7N6C(=O)[C@@H](NC(=O)OC)C(C)C)[nH]c(=O)c5c4)c4c3CC3(CCN(C)CC3)C4)cc2)[nH]1)C(C)C (stereo partly shown) [Example 10] | 1.27 | 0.438 |  | 
COC(=O)N[C@H](C(=O)N1CCC[C@H]1c1ncc(-c2ccc(-c3ccc(-c4ccc5nc([C@@H]6CC7CC7N6C(=O)[C@@H](NC(=O)OC)C(C)C)[nH]c(=O)c5c4)c4c3OC3(CCCC3)O4)cc2)[nH]1)C(C)C (stereo partly shown) [Example 11] | 0.068 | 0.032 |  | 
COC(=O)N[C@H](C(=O)N1CC(F)(F)CC1c1nc(-c2ccc(-c3ccc(-c4ccc5nc([C@@H]6CC(F)(F)CN6C(=O)[C@@H](NC(=O)OC)C(C)C)[nH]c(=O)c5c4)c4c3CC3(CCOCC3)C4)cc2)c[nH]1)C(C)C (stereo partly shown) [Example 12] | 0.38 | 0.049 |  | 
COC(=O)N[C@H](C(=O)N1CCC[C@H]1c1ncc(-c2ccc(-c3ccc(-c4ccc5nc([C@@H]6CCCN6C(=O)[C@@H](NC(=O)OC)c6ccccc6)[nH]c(=O)c5c4)c4c3CC3(CCCC3)C4)cc2)[nH]1)c1ccccc1 [Example 13] | 2.07 | 0.273 |  | 
COC(=O)N[C@@H](C)C(=O)N1CCC[C@H]1c1ncc(-c2ccc(-c3ccc(-c4ccc5nc([C@@H]6CCCN6C(=O)[C@H](C)NC(=O)OC)[nH]c(=O)c5c4)c4c3CC3(CCCC3)C4)cc2)[nH]1 [Example 14] | 0.884 | 0.013 |  | 
COC(=O)N[C@H](C(=O)N1CCC[C@H]1c1ncc(-c2ccc(-c3ccc(-c4ccc5nc([C@@H]6CCCN6C(=O)[C@@H](NC(=O)OC)C6CCCCC6)[nH]c(=O)c5c4)c4c3CC3(CCCC3)C4)cc2)[nH]1)C1CCCCC1 [Example 15] | 0.206 | 0.142 |  | 
COC(=O)N[C@H](C(=O)C1CCCC[C@H]1c1nc2ccc(-c3ccc(-c4ccc(-c5cnc(C6CCCCN6C(=O)[C@@H](NC(=O)OC)C(C)C)[nH]5)cc4)c4c3CC3(CCCC3)C4)cc2c(=O)[nH]1)C(C)C (stereo partly shown) [Example 16] | 0.089 | 0.036 |  | 
COC(=O)N[C@H](C(=O)N1C[C@@H](C)C[C@H]1n1cnc(-c2ccc(-c3ccc(-c4ccc5nc([C@@H]6C[C@H](C)CN6C(=O)[C@@H](NC(=O)OC)C(C)C)[nH]c(=O)c5c4)c4c3CC3(CCCC3)C4)cc2)c1)C(C)C [Example 17] |  |  | 0.023 | 0.006
COC(=O)N[C@H](C(=O)N1CC(C)(C)C[C@H]1c1ncc(-c2ccc(-c3ccc(-c4ccc5nc([C@@H]6CC(C)(C)CN6C(=O)[C@@H](NC(=O)OC)C(C)C)[nH]c(=O)c5c4)c4c3CC3(CCCC3)C4)cc2)[nH]1)C(C)C [Example 18] | 0.326 | 0.065 |  | 
CC(C)[C@H](NC(=O)Oc1ccccc1)C(=O)N1CC(C)(C)C[C@H]1c1ncc(-c2ccc(-c3ccc(-c4ccc5nc([C@@H]6CC(C)(C)CN6C(=O)[C@@H](NC(=O)Oc6ccccc6)C(C)C)[nH]c(=O)c5c4)c4c3CC3(CCCC3)C4)cc2)[nH]1 [Example 19] | 4.77 | 0.436 |  | 
COC(=O)N[C@H](C(=O)N1CCC[C@H]1C(=O)Nc1ccc(-c2ccc(-c3ccc4nc([C@@H]5CCCN5C(=O)[C@@H](NC(=O)OC)C(C)C)[nH]c(=O)c4c3)c3c2CC2(CCCC2)C3)cc1)C(C)C [Example 20] | 3.67 | 0.685 |  | 
COC(=O)N[C@H](C(=O)N1CC2(CC2)C[C@H]1c1ncc(-c2ccc(-c3ccc(-c4ccc5nc([C@@H]6CC7(CC7)CN6C(=O)[C@@H](NC(=O)OC)C(C)C)[nH]c(=O)c5c4)c4c3CC3(CCCC3)C4)cc2)[nH]1)C(C)C [Example 21] | 0.08 | 0.029 |  | 
COC(=O)N[C@H](C(=O)N1C2CC2C[C@H]1c1ncc(-c2ccc(-c3ccc(-c4ccc5nc([C@@H]6CC7CC7N6C(=O)[C@@H](NC(=O)OC)C(C)C)[nH]c(=O)c5c4)c4c3CC3(CCCC3)C4)cc2)[nH]1)C(C)C (stereo partly shown) [Example 22] | 0.561 | 0.072 |  | 
COC(=O)N[C@H](C(=O)N1[C@@H]2CC[C@@H](C2)[C@H]1c1ncc(-c2ccc(-c3ccc(-c4ccc5nc([C@@H]6[C@H]7CC[C@H](C7)N6C(=O)[C@@H](NC(=O)OC)C(C)C)[nH]c(=O)c5c4)c4c3CC3(CCCC3)C4)cc2)[nH]1)C(C)C [Example 23] | 0.31 | 0.047 |  | 
COC(=O)N[C@H](C(=O)N1CC2(C[C@H]1c1ncc(-c3ccc(-c4ccc(-c5ccc6nc([C@@H]7CCCN7C(=O)[C@@H](NC(=O)OC)C(C)C)[nH]c(=O)c6c5)c5c4CC4(CCCC4)C5)cc3)[nH]1)OCCO2)C(C)C [Example 24] | 0.475 | 0.099 |  | 
COC(=O)N[C@H](C(=O)N1CCC[C@H]1c1ncc(-c2ccc(-c3ccc(-c4ccc5nc([C@@H]6CC7CC7N6C(=O)[C@@H](NC(=O)OC)C(C)C)[nH]c(=O)c5c4)c4c3CC3(CCCC3)C4)c3c2CCC3)[nH]1)C(C)C (stereo partly shown) [Example 25] | 0.829 | 0.103 |  | 
COC(=O)N[C@H](C(=O)N1CCC[C@H]1c1ncc(-c2ccc(-c3ccc(-c4ccc5nc([C@@H]6CC7CC7N6C(=O)[C@@H](NC(=O)OC)C(C)C)[nH]c(=O)c5c4)c4c3CC3(CCCC3)C4)c3ccccc23)[nH]1)C(C)C (stereo partly shown) [Example 26] | 0.727 | 0.216 |  | 
COC(=O)N[C@H](C(=O)N1CCC[C@H]1c1ncc(-c2ccc(-c3ccc(-c4ccc5nc([C@@H]6CC7CC7N6C(=O)[C@@H](NC(=O)OC)C(C)C)[nH]c(=O)c5c4)c4c3CC3(CCCC3)C4)c3cnoc23)[nH]1)C(C)C (stereo partly shown) [Example 27] | 1.53 | 0.323 |  | 
COC(=O)N[C@H](C(=O)N1CCC[C@H]1c1ncc(-c2ccc(-c3sc(-c4ccc5nc([C@@H]6CCCN6C(=O)[C@@H](NC(=O)OC)C(C)C)[nH]c(=O)c5c4)c4c3CC3(CCCC3)C4)cc2)[nH]1)C(C)C [Example 28] | 1.1 | 0.763 |  | 
COC(=O)N[C@H](C(=O)N1CCC[C@H]1C1=Nc2cc(-c3cnc(-c4ccc(-c5cnc([C@@H]6CCCN6C(=O)[C@@H](NC(=O)OC)C(C)C)[nH]5)cc4)c4c3CC3(CCCC3)C4)ccc2S(=O)(=O)N1)C(C)C [Example 29] | 0.061 | 0.009 |  | 
